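Grown in 96-well plates, cells were treated for 48 hours with each compound at five concentrations. Insufficient inhibition: endpoint recorded as highest concentration tested. The concentration for 50% growth inhibition is given as GI50. Definition used: TGI = concentration required for complete inhibition of growth.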
What was measured:
Assay in all cases: NCI anticancer screen, dose series, 48 h
OVCAR-5 ovarian = test system: OVCAR-5 ovarian
786-0 renal = test system: 786-0 renal
MCF7 breast = test system: MCF7 breast
IGROV1 ovarian = test system: IGROV1 ovarian
RXF 393 renal = test system: RXF 393 renal
PC-3 prostate = test system: PC-3 prostate
SK-OV-3 ovarian = test system: SK-OV-3 ovarian
UO-31 renal = test system: UO-31 renal
HS 578T breast = test system: HS 578T breast
NCI-H23 lung = test system: NCI-H23 lung

| SMILES | GI50 (OVCAR-5 ovarian) | TGI (OVCAR-5 ovarian) | GI50 (786-0 renal) | TGI (786-0 renal) | GI50 (MCF7 breast) | TGI (MCF7 breast) | GI50 (IGROV1 ovarian) | TGI (IGROV1 ovarian) | GI50 (RXF 393 renal) | TGI (RXF 393 renal) | GI50 (PC-3 prostate) | TGI (PC-3 prostate) | GI50 (SK-OV-3 ovarian) | TGI (SK-OV-3 ovarian) | GI50 (UO-31 renal) | TGI (UO-31 renal) | GI50 (HS 578T breast) | TGI (HS 578T breast) | GI50 (NCI-H23 lung) | TGI (NCI-H23 lung) |
| --- | --- | --- | --- | --- | --- | --- | --- | --- | --- | --- | --- | --- | --- | --- | --- | --- | --- | --- | --- | --- |
| CC(C)(C)CC(C)(C)N(CSc1ccc(Cl)cc1)CSc1ccc(Cl)cc1 | 2.19 µM | 6.26 µM | 1.56 µM | 4.01 µM | 2.2 µM | 10.2 µM | 0.745 µM | 2.7 µM | 1.87 µM | 7.06 µM | 0.472 µM | 4.3 µM | 2.68 µM | 12.4 µM | 0.489 µM | 1.93 µM | 1.72 µM | > 100 µM |  |  |
| COc1ccc2c(c1)CC[C@@H]1[C@@H]2CC[C@]2(C)c3[nH]ncc3C[C@@H]12 | 20.2 µM | > 50 µM | 18.2 µM | > 50 µM | 13.4 µM | 35.7 µM | 21.9 µM | > 50 µM | 11.3 µM | 28 µM | 18.2 µM | > 50 µM | 35.7 µM | > 50 µM | 19.6 µM | > 50 µM | 17.5 µM | > 50 µM |  |  |
| CC(N)(Cc1c[nH]c2ccccc12)C(=O)O (configuration not stated) | > 2500 µM | > 2500 µM | > 2500 µM | > 2500 µM | > 2500 µM | > 2500 µM | > 2500 µM | > 2500 µM | > 2500 µM | > 2500 µM | > 2500 µM | > 2500 µM | > 2500 µM | > 2500 µM | > 2500 µM | > 2500 µM | 1090 µM | > 2500 µM | > 2500 µM | > 2500 µM |
| O=C1OCC2=C1C(c1cccc(C(F)(F)F)c1)c1cc3c(cc1N2CCO)OCO3 (configuration not stated) | 2.19 µM | > 50 µM | 1.19 µM | > 50 µM | 0.415 µM | > 50 µM | 1.61 µM | > 50 µM |  |  | 0.926 µM | > 50 µM | 2.37 µM | > 50 µM | 2.19 µM | > 50 µM | 3.01 µM | > 50 µM | 2.72 µM | > 50 µM |
| NC(=O)c1ccc2nc(-c3ccc(C4(N)CCC4)cc3)c(-c3ccccc3)n2n1 | 12.5 µM | 47 µM | 1.23 µM | 12.2 µM | 0.158 µM | 17.5 µM | 0.0886 µM | 10.7 µM | 0.335 µM | 4.13 µM | 0.183 µM | 20.1 µM | 0.243 µM | 12.7 µM | 0.409 µM | 13.5 µM | 0.863 µM | 10 µM | 16.4 µM | 51.8 µM |
| C=CC(=O)NCCOc1cccc(Nc2cc(NCCCNC(=O)C3CCC3)c(Br)cn2)c1 | 1.84 µM | 10.5 µM | 0.989 µM | > 25 µM | 0.781 µM | 10.3 µM | 0.963 µM | 12.9 µM | 0.283 µM | 0.639 µM | 1.3 µM | 11 µM | 1 µM | 4.06 µM | 0.372 µM | 1.11 µM | 0.567 µM | 1.7 µM | 1.07 µM | 7.16 µM |
| CCCCCCCCCCCCOC1C(CNCC2OC3OC(C)(C)OC3C2NC(=O)Nc2ccc(C(F)(F)F)cc2)OC2OC(C)(C)OC21 (configuration not stated) | 9.11 µM | 17 µM | 7.62 µM | 14.4 µM | 3.53 µM | 7.94 µM | 6.77 µM | 15.6 µM | 3.37 µM | 8.99 µM | 6.68 µM | 13.2 µM | 9.06 µM | 17.2 µM | 7.33 µM | 16.3 µM | 5.39 µM | 14.1 µM | 8.78 µM | 19 µM |
| CC(C)(C)OC(=O)N1CC(Cn2cc(C(F)(F)F)c3c(Cl)ncnc32)C1 | 20.5 µM | 57.5 µM | 16.8 µM | 36.7 µM | 2.13 µM | 6.15 µM | 1.86 µM | 3.92 µM | 1.43 µM | 3.59 µM | 1.76 µM | 3.5 µM | 2.91 µM | 8.21 µM | 2.71 µM | 10.8 µM | 2.36 µM | 6.55 µM | 1.84 µM | 3.58 µM |
| CNS(=O)(=O)c1ccccc1C(=N)c1ccccc1 |  | > 100 µM |  | > 100 µM |  | > 100 µM |  | > 100 µM |  | > 100 µM |  | > 100 µM |  | > 100 µM |  | > 100 µM |  | > 100 µM |  | > 100 µM |
| COc1cc(CNc2nc3cc(N)cc(N)c3nc2-c2ccccc2)cc(OC)c1OC | 21.5 µM | > 50 µM | 15.6 µM | > 50 µM | 1.55 µM | > 50 µM | 9.11 µM | > 50 µM | 7.47 µM | 19.9 µM | 2.18 µM | > 50 µM | 5.36 µM | 13.9 µM | 11.1 µM | > 50 µM | 3 µM | 33.4 µM | 8.64 µM | 17 µM |
| O=S(=O)(CC#CCCCOCC#Cc1ccccc1C#CCS(=O)(=O)c1ccccc1)c1ccccc1 | 24.8 µM | 55.3 µM | 18.9 µM | 35.3 µM | 16.3 µM | 35.3 µM | 11.8 µM | 25.7 µM |  |  | 20.4 µM | 65.3 µM | > 100 µM | > 100 µM | 17.7 µM | 35.4 µM | 35.2 µM | > 100 µM | 15.5 µM | 44.8 µM |
| COc1ccc(C2=CC(c3ccc(Oc4ccnc5cc(Cl)ccc45)c(OC)c3)c3c(nc(OC)[nH]c3=O)N2)cc1 (configuration not stated) | 24.6 µM | > 100 µM | 18.4 µM | > 100 µM | 3.56 µM | > 100 µM | 26 µM | > 100 µM | 21.8 µM | > 100 µM | 6.29 µM | > 100 µM | > 100 µM | > 100 µM | 5.97 µM | > 100 µM | 7.04 µM | > 100 µM | 9.03 µM | > 100 µM |
| COc1cc(-c2cc(-c3nc4cc(Cl)c(Cl)cc4[nH]3)[nH]n2)cc(OC)c1OC | 7.08 µM | 21.6 µM | 4.09 µM | 16.2 µM | 2.79 µM | 11.5 µM | 3.86 µM | 18.2 µM | 3.17 µM | 13.5 µM | 2.2 µM | 7.89 µM | 17.3 µM | 53 µM | 2.47 µM | 8.48 µM | 4.53 µM | > 100 µM | 3.4 µM | 13 µM |

Source: PubChem BioAssay (NCI)
